# ChEMBL document CHEMBL3045929, “Design, synthesis, and evaluation of novel indomethacinantioxidant codrugs as gastrosparing NSAIDs” (2012)
# Legend:
# [1] = system: Mus musculus; experiment: Analgesic activity in Mus musculus (mouse) assessed as inhibition of acetic acid-induced abdominal writhing at 12.9 mg/kg, po measured for 20 min relative to vehicle-treated control; details: Abdomen
# [2] = system: Rattus norvegicus; experiment: Anti-inflammatory activity in Rattus norvegicus Sprague-Dawley (rat) assessed as increase in carrageenan-induced paw edema at 15.6 mg/kg, po measured at 2 hr by plethysmometer (reference value: 64.73 +/- 0.72 %); assay type: functional
# [3] = system: Rattus norvegicus; experiment: Antiulcerogenic activity in fasted Rattus norvegicus Sprague-Dawley (rat) stomach assessed as ulcer index at 62.2 mg/kg, po after 8 hr (reference value: 0.23 +/- 0.09); assay type: functional
# [4] = system: Rattus norvegicus; experiment: Anti-inflammatory activity in Rattus norvegicus Sprague-Dawley (rat) assessed as increase in carrageenan-induced paw edema at 15.6 mg/kg, po measured at 4 hr by plethysmometer (reference value: 81.58 +/- 0.63 %); assay type: functional
# [5] = system: Mus musculus; experiment: Analgesic activity in Mus musculus (mouse) assessed as inhibition of acetic acid-induced abdominal writhing at 13.75 mg/kg, po measured for 20 min relative to vehicle-treated control; details: Abdomen
# [6] = system: Rattus norvegicus; experiment: Anti-inflammatory activity in Rattus norvegicus Sprague-Dawley (rat) assessed as increase in carrageenan-induced paw edema at 16.5 mg/kg, po measured at 4 hr by plethysmometer (reference value: 81.58 +/- 0.63 %); assay type: functional
# [7] = system: Rattus norvegicus; experiment: Antiulcerogenic activity in fasted Rattus norvegicus Sprague-Dawley (rat) stomach assessed as ulcer index at 66 mg/kg, po after 8 hr (reference value: 0.23 +/- 0.09); assay type: functional
# [8] = system: Rattus norvegicus; experiment: Anti-inflammatory activity in Rattus norvegicus Sprague-Dawley (rat) assessed as increase in carrageenan-induced paw edema at 16.5 mg/kg, po measured at 2 hr by plethysmometer (reference value: 64.73 +/- 0.72 %); assay type: functional
# [9] = system: Mus musculus; experiment: Analgesic activity in Mus musculus (mouse) assessed as inhibition of acetic acid-induced abdominal writhing at 13.69 mg/kg, po measured for 20 min relative to vehicle-treated control; details: Abdomen
# [10] = system: Rattus norvegicus; experiment: Anti-inflammatory activity in Rattus norvegicus Sprague-Dawley (rat) assessed as increase in carrageenan-induced paw edema at 16.4 mg/kg, po measured at 2 hr by plethysmometer (reference value: 64.73 +/- 0.72 %); assay type: functional
# [11] = system: Rattus norvegicus; experiment: Antiulcerogenic activity in fasted Rattus norvegicus Sprague-Dawley (rat) stomach assessed as ulcer index at 65.7 mg/kg, po after 8 hr (reference value: 0.23 +/- 0.09); assay type: functional
# [12] = system: Rattus norvegicus; experiment: Anti-inflammatory activity in Rattus norvegicus Sprague-Dawley (rat) assessed as increase in carrageenan-induced paw edema at 16.4 mg/kg, po measured at 4 hr by plethysmometer (reference value: 81.58 +/- 0.63 %); assay type: functional
# [13] = system: Rattus norvegicus; experiment: Anti-inflammatory activity in Rattus norvegicus Sprague-Dawley (rat) assessed as increase in carrageenan-induced paw edema at 16 mg/kg, po measured at 4 hr by plethysmometer (reference value: 81.58 +/- 0.63 %); assay type: functional
# [14] = system: Rattus norvegicus; experiment: Antiulcerogenic activity in fasted Rattus norvegicus Sprague-Dawley (rat) stomach assessed as ulcer index at 67.1 mg/kg, po after 8 hr (reference value: 0.23 +/- 0.09); assay type: functional
# [15] = system: Rattus norvegicus; experiment: Anti-inflammatory activity in Rattus norvegicus Sprague-Dawley (rat) assessed as increase in carrageenan-induced paw edema at 16 mg/kg, po measured at 2 hr by plethysmometer (reference value: 64.73 +/- 0.72 %); assay type: functional
# [16] = system: Mus musculus; experiment: Analgesic activity in Mus musculus (mouse) assessed as inhibition of acetic acid-induced abdominal writhing at 13.96 mg/kg, po measured for 20 min relative to vehicle-treated control; details: Abdomen
# [17] = system: Rattus norvegicus; experiment: Anti-inflammatory activity in Rattus norvegicus Sprague-Dawley (rat) assessed as increase in carrageenan-induced paw edema at 16.9 mg/kg, po measured at 2 hr by plethysmometer (reference value: 64.73 +/- 0.72 %); assay type: functional
# [18] = system: Rattus norvegicus; experiment: Anti-inflammatory activity in Rattus norvegicus Sprague-Dawley (rat) assessed as increase in carrageenan-induced paw edema at 16.9 mg/kg, po measured at 4 hr by plethysmometer (reference value: 81.58 +/- 0.63 %); assay type: functional
# [19] = system: Mus musculus; experiment: Analgesic activity in Mus musculus (mouse) assessed as inhibition of acetic acid-induced abdominal writhing at 14.08 mg/kg, po measured for 20 min relative to vehicle-treated control; details: Abdomen
# [20] = system: Rattus norvegicus; experiment: Antiulcerogenic activity in fasted Rattus norvegicus Sprague-Dawley (rat) stomach assessed as ulcer index at 67.6 mg/kg, po after 8 hr (reference value: 0.23 +/- 0.09); assay type: functional
# [21] = system: Rattus norvegicus; experiment: Anti-inflammatory activity in Rattus norvegicus Sprague-Dawley (rat) assessed as increase in carrageenan-induced paw edema at 16.6 mg/kg, po measured at 2 hr by plethysmometer (reference value: 64.73 +/- 0.72 %); assay type: functional
# [22] = system: Mus musculus; experiment: Analgesic activity in Mus musculus (mouse) assessed as inhibition of acetic acid-induced abdominal writhing at 13.9 mg/kg, po measured for 20 min relative to vehicle-treated control; details: Abdomen
# [23] = system: Rattus norvegicus; experiment: Anti-inflammatory activity in Rattus norvegicus Sprague-Dawley (rat) assessed as increase in carrageenan-induced paw edema at 16.6 mg/kg, po measured at 4 hr by plethysmometer (reference value: 81.58 +/- 0.63 %); assay type: functional
# [24] = system: Rattus norvegicus; experiment: Antiulcerogenic activity in fasted Rattus norvegicus Sprague-Dawley (rat) stomach assessed as ulcer index at 66.5 mg/kg, po after 8 hr (reference value: 0.23 +/- 0.09); assay type: functional
# [25] = system: Rattus norvegicus; experiment: Antiulcerogenic activity in fasted Rattus norvegicus Sprague-Dawley (rat) stomach assessed as ulcer index at 48 mg/kg, po after 8 hr (reference value: 0.23 +/- 0.09); assay type: functional
# [26] = system: Rattus norvegicus; experiment: Anti-inflammatory activity in Rattus norvegicus Sprague-Dawley (rat) assessed as increase in carrageenan-induced paw edema at 12 mg/kg, po measured at 4 hr by plethysmometer (reference value: 81.58 +/- 0.63 %); assay type: functional
# [27] = system: Rattus norvegicus; experiment: Anti-inflammatory activity in Rattus norvegicus Sprague-Dawley (rat) assessed as increase in carrageenan-induced paw edema at 12 mg/kg, po measured at 2 hr by plethysmometer (reference value: 64.73 +/- 0.72 %); assay type: functional
# [28] = system: Mus musculus; experiment: Analgesic activity in Mus musculus (mouse) assessed as inhibition of acetic acid-induced abdominal writhing at 10 mg/kg, po measured for 20 min relative to vehicle-treated control; details: Abdomen
# [29] = system: Rattus norvegicus; experiment: Antiulcerogenic activity in fasted Rattus norvegicus Sprague-Dawley (rat) stomach assessed as ulcer index at 64.1 mg/kg, po after 8 hr (reference value: 0.23 +/- 0.09); assay type: functional
# [30] = system: Rattus norvegicus; experiment: Anti-inflammatory activity in Rattus norvegicus Sprague-Dawley (rat) assessed as increase in carrageenan-induced paw edema at 16.8 mg/kg, po measured at 4 hr by plethysmometer (reference value: 81.58 +/- 0.63 %); assay type: functional
# [31] = system: Rattus norvegicus; experiment: Anti-inflammatory activity in Rattus norvegicus Sprague-Dawley (rat) assessed as increase in carrageenan-induced paw edema at 16.8 mg/kg, po measured at 2 hr by plethysmometer (reference value: 64.73 +/- 0.72 %); assay type: functional
# [32] = system: Mus musculus; experiment: Analgesic activity in Mus musculus (mouse) assessed as inhibition of acetic acid-induced abdominal writhing at 13.35 mg/kg, po measured for 20 min relative to vehicle-treated control; details: Abdomen
smiles,measurement,setting,value
COc1ccc2c(c1)c(CC(=O)Oc1ccccc1OC)c(C)n2C(=O)c1ccc(Cl)cc1,inhibition in vivo at 12.9 mg/kg,[1],78.7%
same,Activity,[2],46.89%
same,UI,[3],1.15
same,Activity,[4],48.21%
COc1ccc2c(c1)c(CC(=O)Oc1ccc(C=O)cc1OC)c(C)n2C(=O)c1ccc(Cl)cc1,inhibition in vivo at 13.75 mg/kg,[5],81.5%
same,Activity,[6],49.87%
same,UI,[7],1.23
same,Activity,[8],47.13%
COc1ccc2c(c1)c(CC(=O)Oc1cc(C)ccc1C(C)C)c(C)n2C(=O)c1ccc(Cl)cc1,inhibition in vivo at 13.69 mg/kg,[9],73.2%
same,Activity,[10],50.25%
same,UI,[11],1.37
same,Activity,[12],54.61%
COc1ccc2c(c1)c(CC(=O)Oc1ccc3c(c1)OCO3)c(C)n2C(=O)c1ccc(Cl)cc1,Activity,[13],44.52%
same,UI,[14],0.79
same,Activity,[15],43.17%
same,inhibition in vivo at 13.96 mg/kg,[16],86%
C=CCc1ccc(OC(=O)Cc2c(C)n(C(=O)c3ccc(Cl)cc3)c3ccc(OC)cc23)c(OC)c1,Activity,[17],44.33%
same,Activity,[18],45.39%
same,inhibition in vivo at 14.08 mg/kg,[19],84.8%
same,UI,[20],0.93
COc1ccc2c(c1)c(CC(=O)O[C@@H]1C[C@H](C)CC[C@H]1C(C)C)c(C)n2C(=O)c1ccc(Cl)cc1,Activity,[21],52.01%
same,inhibition in vivo at 13.9 mg/kg,[22],73.9%
same,Activity,[23],55.54%
same,UI,[24],1.41
COc1ccc2c(c1)c(CC(=O)O)c(C)n2C(=O)c1ccc(Cl)cc1 [INDOMETHACIN],UI,[25],5.54
same,Activity,[26],57.39%
same,Activity,[27],48.35%
same,inhibition in vivo at 10 mg/kg,[28],74.9%
COc1ccc2c(c1)c(CC(=O)Oc1ccc3ccc(=O)oc3c1)c(C)n2C(=O)c1ccc(Cl)cc1,UI,[29],1.28
same,Activity,[30],50.27%
same,Activity,[31],48.06%
same,inhibition in vivo at 13.35 mg/kg,[32],75.2%
